Results from patent US6063797A, “γ-RAR antagonist ligand or α-RAR agonist ligand as an apoptosis inhibitor” (priority 1995, dated 2000).
Like-named read-outs stand apart in the source and are kept apart here.

Key:
RAR-α = biological target: T1, RAR-α (Homo sapiens, UniProt P10276); assay: Dissociation constant for RAR-α receptors; type: binding
T1 sequence (P10276 1-462): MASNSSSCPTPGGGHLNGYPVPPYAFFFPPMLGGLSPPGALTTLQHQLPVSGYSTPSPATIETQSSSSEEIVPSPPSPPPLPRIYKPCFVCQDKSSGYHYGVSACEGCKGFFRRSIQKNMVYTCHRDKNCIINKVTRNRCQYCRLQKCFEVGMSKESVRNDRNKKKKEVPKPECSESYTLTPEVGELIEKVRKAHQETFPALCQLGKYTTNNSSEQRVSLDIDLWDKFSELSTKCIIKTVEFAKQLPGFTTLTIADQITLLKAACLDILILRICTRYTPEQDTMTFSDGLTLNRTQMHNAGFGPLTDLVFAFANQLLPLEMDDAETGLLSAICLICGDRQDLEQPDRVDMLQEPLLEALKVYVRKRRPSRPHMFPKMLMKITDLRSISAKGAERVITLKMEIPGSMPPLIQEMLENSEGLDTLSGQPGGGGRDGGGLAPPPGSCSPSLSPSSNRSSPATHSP

thymocytes [1] = assay: Quantitative DNA fragmentation (apoptosis) in thymocytes, retinoid-induced (Example 1); type: cell-based, mouse (NMRI); conditions: for % of DNA fragments: 6 h
Description: (§1) Thymus glands from untreated 4-week old NMRI male mice (sold by LATI, Godollo, Hungary) are used as the starting material for preparing thymocyte suspensions. The medium employed is Sigma RPMI 1640 medium which is supplemented with Gibco foetal calf serum, 2 mM glutamine, 100 IU of penicillin and 100 μg of streptomycin/ml. The thymocytes are then washed and diluted, in order to obtain a final concentration of 10^7 cells/ml, before incubating them at 37° C. in a humidified incubator under an atmosphere of 5% CO2 and 95% air. The death of the cells is measured by the uptake of trypan blue.
(§2) The thymocytes are incubated in 24 wells together with various compounds to be tested. After 6 hours of incubation, 0.8 ml volumes of cell suspensions were lysed by the addition of 0.7 ml of lysis buffer containing 0.5% (v/v) Triton X-100, 10 mM Tris, 20 mM EDTA, pH 8.0, before being centrifuged at 13,000 g for 15 minutes.
(§3) Quantitative analysis of the DNA: the DNA contained in the supernatant (the fragments) and the pellet (intact chromatin) was precipitated with an equivalent quantity of 10% trichloroacetic acid, resuspended in 5% trichloroacetic acid and then quantified using the diphenylamine reagent (Burton, K. (1956) Biochem. J., 62, 315-322).
Qualitative analysis of the DNA: in parallel, the supernatant was precipitated overnight in ethanol containing […]. The pellets are redissolved in a buffer containing 10 mM Tris, 1 mM EDTA, pH 8.0, after which the solutions are treated with RNase and sequentially extracted with an equal volume of phenol and chloroform/isoamyl alcohol (24/1); the DNA is then precipitated in ethanol before electrophoresis for 3 hours at 60 V in a 1.8% agarose gel. The DNA fragments were then visualized by UV after the gel had been stained with ethidium bromide. The gels obtained display the picture of a ladder of DNA fragments which are multiples of from 180 to 200 base pairs and which are typical for an apoptosis induction. Throughout the experiments, the degree of fragmentation correlates with the number of cells which are dead and which are positive to the trypan blue test.
(§4) The percentage of DNA fragment in this table corresponds to the difference between the percentage of DNA fragment obtained in the treated thymocytes and the percentage of DNA fragment obtained in the untreated thymocytes (basal rate of apoptosis for these thymocytes).

thymocytes [2] = assay: DNA fragmentation (apoptosis) in thymocytes induced by CD437 (Example 2); type: cell-based, mouse (NMRI); conditions: for % of DNA fragments: difference treated minus untreated
Description: as §1, §2, §3
The procedure is the same as in the preceding example, except that the nature of the ligands to be tested, and their concentration, are altered.
as §4

thymocytes [3] = assay: DNA fragmentation (apoptosis) in thymocytes induced by activating a T-cell receptor with phorbol dibutyrate + Ca++ ionophore (Example 3); type: cell-based, mouse (NMRI); conditions: for % of DNA fragments: difference treated minus untreated
thymus = type: in vivo, mouse (NMRI); conditions: for Weight of the thymus: 48 h, control 98.2 ± 19.6
Description: 4-week-old male NMRI mice (sold by LATI, Godollo, Hungary) were used. […] For the control, male mice were treated by a single intraperitoneal injection of a mixture of 40 μl of DMSO and 0.5 ml of 20% ethanol. The CD2665 was also tested alone under the same conditions as before and in a quantity of 0.5 mg. The weight of the thymus was determined after 48 hours of treatment, and the results are assembled in Table 4 below.

RAR-γ = biological target: T2, RAR-γ (Homo sapiens, UniProt P13631); assay: Dissociation constant for RAR-γ receptors; type: binding
T2 sequence (P13631 1-454): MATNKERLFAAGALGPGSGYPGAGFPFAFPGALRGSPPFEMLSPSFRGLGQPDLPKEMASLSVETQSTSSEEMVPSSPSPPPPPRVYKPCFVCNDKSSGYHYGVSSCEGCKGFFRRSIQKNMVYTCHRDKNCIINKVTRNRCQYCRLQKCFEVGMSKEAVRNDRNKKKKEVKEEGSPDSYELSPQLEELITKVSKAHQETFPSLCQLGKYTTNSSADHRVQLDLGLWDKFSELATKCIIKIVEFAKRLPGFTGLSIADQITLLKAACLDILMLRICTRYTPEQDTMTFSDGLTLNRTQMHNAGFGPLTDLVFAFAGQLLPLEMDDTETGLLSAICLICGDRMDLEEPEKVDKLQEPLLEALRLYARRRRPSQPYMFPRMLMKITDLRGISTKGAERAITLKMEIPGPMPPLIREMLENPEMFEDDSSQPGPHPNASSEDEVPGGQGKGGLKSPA

[4] = 0.5 mg single intraperitoneal injection, alone

SMILES: CC1(C)CCC(C)(C)c2cc(C(=O)Nc3ccc(C(=O)O)c(O)c3)ccc21 [2-hydroxy-4-(5,5,8,8-tetramethyl-5,6,7,8-tetrahydronaphthalene-2-carboxamido)benzoic acid]
- dissociation constant for RAR-α lower than dissociation constant for RAR-γ (fold) (RAR-α; RAR-α versus RAR-γ): at least 20 times

SMILES: CC1=C(/C=C/C(C)=C\C=C\C(C)=C\C(=O)O)C(C)(C)CCC1 [9-cisRA, 9-cis-retinoic acid, reference compound]
- % of DNA fragments (thymocytes [1]; 9-cisRA 1000 nM, difference treated minus untreated thymocytes): 19%

SMILES: CC1=C(/C=C/C(C)=C/C=C/C(C)=C/C(=O)O)C(C)(C)CCC1 [ATRA, all-trans retinoic acid, reference compound]
- % of DNA fragments (thymocytes [1]; ATRA 5000 nM, difference treated minus untreated thymocytes): 17%

SMILES: CC1(C)CCC(C)(C)c2cc(C(=O)Nc3ccc(C(=O)O)cc3)ccc21 [CD336, 4-((5,6,7,8-tetrahydro-5,5,8,8-tetramethyl-2-naphthalenyl)carboxamido)benzoic acid]
- % of DNA fragments (thymocytes [2]; CD336 alone 10^-6 M): 0%
- % of DNA fragments (thymocytes [2]; CD336 alone 10^-7 M): 0%
- % of DNA fragments (thymocytes [2]; CD336 alone 10^-8 M): 0%
- % of DNA fragments (thymocytes [2]; CD437 + CD336 10^-6 M): 0%
- % of DNA fragments (thymocytes [2]; CD437 + CD336 10^-7 M): 5%
- % of DNA fragments (thymocytes [2]; CD437 + CD336 10^-8 M): 17%
- inhibition of apoptosis induced by CD437 (thymocytes [2]; conclusion from Table 2): inhibited in a dose-dependent manner
- % of DNA fragments (thymocytes [3]; (P + C) + CD336 30 nM): 9.6%
- % of DNA fragments (thymocytes [3]; (P + C) + CD336 300 nM): 8.4%
- % of DNA fragments (thymocytes [3]; (P + C) + CD336 3000 nM): 1.1%
- % of DNA fragments (thymocytes [3]; CD336 alone 30 nM): 0%
- % of DNA fragments (thymocytes [3]; CD336 alone 300 nM): 0%
- % of DNA fragments (thymocytes [3]; CD336 alone 3000 nM): 0%
- inhibition of apoptosis induced by P+C (thymocytes [3]; conclusion from Table 3): inhibited in a dose-dependent manner

SMILES: O=C(O)c1ccc2cc(-c3ccc(O)c(C45CC6CC(CC(C6)C4)C5)c3)ccc2c1 [CD437, reference compound]
- % of DNA fragments (thymocytes [1]; CD437 300 nM, difference treated minus untreated thymocytes): 24%
- % of DNA fragments (thymocytes [2]; CD437 alone 0.3 × 10^-6 M): 17%
- Weight of the thymus (thymus; [4]): 31.3 ± 13.6 mg
- involution of the thymus (thymus; alone, conclusion from Table 4): involution of the thymus is observed

SMILES: COCCOCOc1cc2ccc(-c3ccc(C(=O)O)cc3)cc2cc1C12CC3CC(CC(C3)C1)C2 [CD2665, 4-[7-(1-adamantyl)-6-methoxyethoxymethoxy-2-naphthyl]benzoic acid]
- Kd (RAR-α): > 2250 nM
- Kd (RAR-γ): 110 nM
- dissociation constant for RAR-γ lower than dissociation constant for RAR-α (fold) (RAR-γ; RAR-γ versus RAR-α): at least 20 times
- % of DNA fragments (thymocytes [1]; CD2665 200 nM + 9-cisRA 1000 nM, difference treated minus untreated): 1.5%
- % of DNA fragments (thymocytes [1]; CD2665 200 nM + ATRA 5000 nM, difference treated minus untreated): 0%
- % of DNA fragments (thymocytes [1]; CD2665 200 nM + CD437 300 nM, difference treated minus untreated): 1.0%
- % of DNA fragments (thymocytes [1]; CD2665 200 nM alone, difference treated minus untreated thymocytes): 0.5%
- inhibition of apoptosis induced by ATRA, 9-cisRA and CD437 (thymocytes [1]; conclusion from Table 1): inhibited
- Weight of the thymus (thymus; [4]): 107.6 ± 21.7 mg
- Weight of the thymus (thymus; CD2665 5 mg + CD437 0.5 mg, single intraperitoneal injection): 63.3 ± 9.1 mg
- involution of the thymus (thymus; alone, conclusion from Table 4): no significant change is observed
- involution of the thymus (thymus; combination of CD2665 and CD437, compared with CD437 alone): involution of the thymus which is much less marked than that observed with CD437 alone
